Our source for the Observed efficacy values is patent publication US20230397607A1, “COMPOSITIONS COMPRISING MEFENTRIFLUCONAZOLE” (BASF AGRO B.V., priority 2020, published 2023).

Like-named read-outs stand apart in the source and are kept apart here.

Test [1] deals with Septoria tritici. To be noted: SEPTTR, single active, 7 days after inoculation.
Experimental: Activity Against Leaf Blotch on Wheat Caused by Septoria tritici (SEPTTR)
The stock solutions were mixed according to the ratio, pipetted onto a micro titer plate (MTP) and diluted with water to the stated concentrations. A spore suspension of Septoria tritici in an aqueous biomalt or yeast-bactopeptone-glycerine or DOB solution was then added. The plates were placed in a water vapor-saturated chamber at a temperature of 18° C. Using an absorption photometer, the MTPs were measured at 405 nm 7 days after the inoculation.
An efficacy of 0 means that the growth level of the pathogens corresponds to that of the untreated control; an efficacy of 100 means that the pathogens were not growing.
Test [2] concerns Qoi resistant isolate of Pyrenophora teres. As to the kind of experiment: Microtiter test: activity against net blotch Pyrenophora teres on barley (PYRNTE). The format is cell-based. Conditions: single active, 7 days after inoculation. The source says: 2. Activity Against Net Blotch Pyrenophora teres on Barley in the Microtiter Test (PYRNTE)
These percentages were converted into efficacies.

Regarding `CC1CC(C)(C)c2cccc(NC(=O)c3cn(C)nc3C(F)F)c21` (stereo in doubt) [compound II, 3-(difluoromethyl)-N-[(3R)-2,3-dihydro-1,1,3-trimethyl-1H-inden-4-yl]-1-methyl-1H-pyrazole-4-carboxamide], the Observed efficacy in test [1] (0.016 ppm) is reported as 0%; in test [1] (0.063 ppm), 17%; in test [2] (0.004 ppm) it was 0%; in test [2] (0.016 ppm), 10%; in test [2] (0.063 ppm) it was 37%.

Consider `CO/C=C(/C(=O)OC)c1ccccc1Oc1cc(Oc2ccccc2C#N)ncn1` [azoxystrobin (A.1.1), azoxystrobin], for which the Observed efficacy in test [1] (0.004 ppm) is given as 7%.

As for `CC(O)(Cn1cncn1)c1ccc(Oc2ccc(Cl)cc2)cc1C(F)(F)F` (stereo not drawn) [compound I, 2-[4-(4-chlorophenoxy)-2-(trifluoromethyl)phenyl]-1-(1,2,4-triazol-1-yl) propan-2-ol], the Observed efficacy was 7% in test [1] (0.001 ppm); 69% in test [1] (0.004 ppm); 0% in test [2] (0.00025 ppm); 0% in test [2] (0.001 ppm); 0% in test [2] (0.004 ppm).

Regarding `Cn1cc(C(=O)Nc2ccccc2-c2cc(F)c(F)c(F)c2)c(C(F)F)n1` [fluxapyroxad (A.3.9), fluxapyroxad], the Observed efficacy in test [2] (0.004 ppm) was found to be 0%.

For the molecule `CC(C)c1ccc(Cl)cc1CN(C(=O)c1c(C(F)F)nn(C)c1F)C1CC1` [isoflucypram (A.3.26), isoflucypram], the Observed efficacy in test [1] (0.063 ppm) is given as 37%.

In the case of `CON(C(=O)c1cn(C)nc1C(F)F)C(C)Cc1c(Cl)cc(Cl)cc1Cl` (stereo not drawn) [pydiflumetofen (A.3.17), pydiflumetofen], the Observed efficacy in test [2] (0.063 ppm) worked out at 10%.

In test [1] (0.001 ppm), `COC(=O)N(OC)c1ccccc1COc1ccn(-c2ccc(Cl)cc2)n1` [pyraclostrobin (A.1.14), pyraclostrobin] gave an Observed efficacy of 9%.
